Patent publication US8293979B2, “Weed controller metabolism proteins, genes, thereof and use of the same” (Sumitomo Chemical Company, Limited, priority 2001, dated 2012)

Assays:
[1] = test system: Blackgrass; test: Herbicidal activity test, foliage treatment; assay type: in vivo, Alopercurus myosuroides; parameters: key: 0: situations in which the condition of sprouting or vegetation at the time of examination of the plant utilized for the test was compared with and showed totally or substantially no difference with that of the untreated application; 10: situations in which the plant completely withered or the sprouting or vegetation was completely suppressed; settings: sprayed onto the foliage of plants cultivated 10 days, investigated after 16 days in a greenhouse
Protocol: Soil was packed into a round plastic pot having a diameter of 10 cm and depth of 10 cm. Barnyardgrass, Blackgrass, Ivyleaf morningglory were seeded and cultivated in a greenhouse for 10 days. Five (5) parts of the test compound, 6 parts of sorpol3005X (Toho Chemical Company) and 89 parts of xylene were well mixed to produce an emulsion. A certain amount thereof was diluted with water containing 0.1% (v/v) of a sticking agent at a proportion of 1000 L for 1 hectare and was spread uniformly with a spray-gun onto the all sides of the foliage from above the plant cultivated in the above pot. After cultivating the plants for 16 days in a greenhouse, the herbicidal activity of the test compound was investigated.
In the above Tables 3 and 4, the strength of the herbicidal activity is shown stepwise as 0, 1, 2, 3, 4, 5, 6, 7, 8, 9, and 10.

[2] = test system: present invention protein (A19); test: Detection of the ability to convert compound (II) to compound (III), E. coli pKSN1502F extract; assay type: in vitro ADME, Streptomyces griseus IFO 13849T; settings: 3 ppm of compound (II) labeled with 14C, components A, B, 10 minutes at 30° C.
Protocol: (§1) Reaction solutions of 30 μl were prepared and maintained for 10 minutes at 30° C. The reaction solutions consisted of a 0.1M potassium phosphate buffer (pH7.0) containing 3 ppm of compound (II) labeled with ^14C, 2 mM of β-NADPH (hereinafter, referred to as “component A”) (Oriental Yeast Company), 2 mg/ml of a ferredoxin derived from spinach (hereinafter referred to as “component B”) (Sigma Company), 0.1 U/ml of ferredoxin reductase (hereinafter, referred to as “component C”) (Sigma Company) and 23 μl of the supernatant fraction recovered in Example 32(2). Similarly to Example 4(3), the reaction solutions after the maintenance were extracted with ethyl acetate and the extracted layers were TLC analyzed. […] A spot corresponding to compound (III) was detected from the reaction solution containing E. coli pKSN849AF extract. In contrast, such a spot was not detected from the reaction solution containing E. coli pKSN2 extract.
(§2) Similarly to Example 32(3), reaction solutions of 30 μl were prepared and maintained for 10 minutes at 30° C. […] The reaction solutions after the maintenance were extracted with ethyl acetate and the extracted layers were TLC analyzed. […] A spot corresponding to compound (III) was detected from the reaction solution containing E. coli pKSN1502F extract. In contrast, such a spot was not detected from the reaction solution containing E. coli pKSN2 extract.

[3] = test system: present invention protein (A15); test: Detection of the ability to convert compound (II) to compound (III), E. coli pKSN1555AF extract; assay type: in vitro ADME, Streptomyces olivochromogenes IFO 12444; settings: 3 ppm of compound (II) labeled with 14C, components A, B, 10 minutes at 30° C.
Protocol: as §1
as §2, with “Reaction” for “Similarly to Example 32(3), reaction”, “pKSN1555AF” for “pKSN1502F”

[4] = test system: present invention protein (A14); test: Detection of the ability to convert compound (II) to compound (III), E. coli pKSN1491AF extract; assay type: in vitro ADME, Streptomyces glomerochromogenes IFO 13673t; settings: 3 ppm of compound (II) labeled with 14C, components A, B, 10 minutes at 30° C.
Protocol: as §1
as §2, with “Reaction” for “Similarly to Example 32(3), reaction”, “pKSN1491AF” for “pKSN1502F”

[5] = test system: present invention protein (A25); test: Detection of the ability to convert compound (II) to compound (III), E. coli pKSN1609F extract; assay type: in vitro ADME, Streptomyces steffisburgensis IFO 13446T; settings: 3 ppm of compound (II) labeled with 14C, components A, B, 10 minutes at 30° C.
Protocol: as §1
as §2, with “pKSN1609F” for “pKSN1502F”

Question: Which results are given for `C[C@@H](Oc1cc(-n2c(=O)cc(C(F)(F)F)n(C)c2=O)c(F)cc1Cl)C(=O)O` [compound (II)]?
Answer: Herbicidal Activity Blackgrass ([1]; 125 g/ha): 10; Herbicidal Activity Blackgrass ([1]; 500 g/ha): 10; spot corresponding to compound (III) labeled with 14C (TLC) [2]: detected; spot corresponding to compound (III) labeled with 14C (TLC) [3]: detected; spot corresponding to compound (III) labeled with 14C (TLC) [4]: detected; spot corresponding to compound (III) labeled with 14C (TLC) [5]: detected
